Experimental data reported in patent US5945415A, “(R)-5-bromo-N-(1-ethyl-4-methylhexahydr o-1H-1,4-diazepin-6-yl)-2-methoxy-6-methylamino-3-pyridinecarboxamide, process for producing the same and medicinal composition containing the same” (priority 1995, dated 1999).
Counter-ions that a name gives are not always drawn. Like-named read-outs stand apart in the source and are kept apart here.

Experiments:
cisplatin-induced emesis [1] = assay: Effect on cisplatin-induced emesis in dog; format: in vivo, Beagle dogs; details: Canis lupus familiaris, 0.5 h, read-out: ED50 cisplatin-induced emesis, dog
Protocol: Effect on Cisplatin-induced Emesis in Dog
Four to five Beagle dogs (body weight: 10-12 kg) per group were used to examine the inhibitory effect of the test compounds on cisplatin-induced emesis. To each test group each a prescribed dose of a test compound as dissolved or suspended in 0.5% tragacanth solution was orally administered, and 30 minutes thereafter, cisplatin (Sigma) 3 mg/kg (physiological salt solution, 3 ml/kg) was intravenously administered.

[2] = test system: apomorphine-induced emesis; assay: Inhibitory effect on apomorphine-induced emesis in dog; format: in vivo, Beagle dogs; details: Canis lupus familiaris, read-out: ED50 apomorphine-induced emesis, dog
Protocol: Inhibitory Effect on Apomorphine-induced Emesis
Three to four Beagle dogs (body weight: 8-15 kg) per group were used to examine the inhibitory effect of the test compounds on apomorphine-inducedemesis. This test has been commonly conducted as a method for detecting dopamine blocker. Each of the test animals was orally administered with a prescribed dose of a test compound as dissolved or suspended in 0.5% tragacanth solution, and two hours thereafter, was administered with apomorphine hydrochloride (0.3 mg/kg) by subcutaneous injection at the back.

cisplatin-induced emesis [3] = assay: Effect on cisplatin-induced emesis in ferrets; format: in vivo, Male ferrets; details: Mustela putorius, 0.5 h, read-out: ED50 cisplatin-induced emesis, ferret
Protocol: Effect on Cisplatin-induced Emesis in Ferrets
Male ferrets (Marshall Lab., U.S.A.) weighing approximately 1 kg were used. For intravenous injection, a cannule was implanted in the cervical vein under pentobarbital anethesia, 3-4 days in advance of the experiment. To each test group each a prescribed dose of a test compound as dissolved or suspended in 0.5% tragacanth solution was orally administered, and 30 minutes thereafter, cisplatin (Sigma) 10 mg/kg (physiological salt solution, 3 ml/kg) was administered intravenously through the cannule.

Dopamine D2 receptor = Dopamine D2 receptor (Rattus norvegicus, UniProt P61169); assay: biochemical
Sequence of Dopamine D2 receptor (P61169 whole entry): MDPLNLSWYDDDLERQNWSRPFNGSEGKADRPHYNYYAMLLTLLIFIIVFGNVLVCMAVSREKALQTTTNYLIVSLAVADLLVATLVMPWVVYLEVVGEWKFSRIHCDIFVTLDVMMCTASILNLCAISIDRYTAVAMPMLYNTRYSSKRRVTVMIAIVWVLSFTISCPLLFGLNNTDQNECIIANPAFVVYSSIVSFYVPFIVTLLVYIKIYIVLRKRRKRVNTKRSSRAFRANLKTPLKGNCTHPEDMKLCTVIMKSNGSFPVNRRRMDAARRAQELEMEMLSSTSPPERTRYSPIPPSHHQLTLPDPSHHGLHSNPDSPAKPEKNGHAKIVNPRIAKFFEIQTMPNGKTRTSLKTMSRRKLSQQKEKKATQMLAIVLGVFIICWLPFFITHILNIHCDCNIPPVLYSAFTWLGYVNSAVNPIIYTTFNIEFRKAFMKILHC
Protocol: (§1) Dopamine D2 receptor-binding and serotonin S3 receptor-binding activities (in vitro receptor binding assay)
(§2) Crude synaptosome fractions prepared from rat brain were used as receptor samples, and [^3 H] spiperone (D2) and [^3 H] quipazine (S3), as labelled ligands. A buffer solution containing each of the receptor sample and labelled ligand (final volume: 1 ml) was incubated for a prescribed period in the presence of one of the test compounds at various concentration levels, and thereafter the radioactive ligand bound to the receptor was isolated onto a filter using a cell-harvester (Brandel Co.) and radioactivity on each filter was measured with a liquid scintillation counter to determine the total amount bound to the receptor. Specifically bound amount was calculated by subtracting non-specifically bound amount from the total amount bound, said non-specifically bound amount being that bound under the presence of an excessive amount of non-labelled ligand [spiperone (D2) and [^3 H] quipazine (S3)] which was concurrently measured. The concentration level of the test compound at which specific binding of labelled ligand was inhibited by 50% (IC50 value) was calculated by probit analysis.

[4] = target: T1, serotonin S3 (5-HT3) receptor (Rattus norvegicus, UniProt P35563); assay: Inhibitory effect on von Bezold-Jarisch reflex (anti-serotonin S3 activity); format: in vivo, Male Wister rats; parameters: Male Wister rats weighing 250-350 g were anesthetized with urethane; from tissue; host or cells: whole animal in vivo (male Wistar rats); details: 0.05 h, test compound intravenous 3 minutes before 2-methylserotonin 10-30 μg/kg i.v., read-out: ED50 von Bezold-Jarisch Reflex Inhibition
T1 sequence (P35563 24-483): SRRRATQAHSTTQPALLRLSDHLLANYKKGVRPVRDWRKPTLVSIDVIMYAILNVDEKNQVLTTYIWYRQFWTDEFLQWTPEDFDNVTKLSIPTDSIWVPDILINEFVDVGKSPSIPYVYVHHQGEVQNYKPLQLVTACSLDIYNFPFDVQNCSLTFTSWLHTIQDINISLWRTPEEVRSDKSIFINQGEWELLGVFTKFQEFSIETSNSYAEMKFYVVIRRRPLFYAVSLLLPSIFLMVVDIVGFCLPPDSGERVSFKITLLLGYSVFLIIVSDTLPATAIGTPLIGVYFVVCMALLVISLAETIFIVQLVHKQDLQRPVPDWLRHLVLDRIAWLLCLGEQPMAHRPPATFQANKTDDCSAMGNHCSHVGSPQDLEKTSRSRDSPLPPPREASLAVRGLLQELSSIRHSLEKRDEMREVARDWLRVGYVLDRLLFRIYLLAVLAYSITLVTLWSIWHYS
Protocol: Inhibitory Effect on von Bezold-Jarisch Reflex (Anti-serotonin S3 Activity)
This test was carried out following the method of Fozard, et al. [cf. Arch. […] Male Wister rats weighing 250-350 g were anesthetized with urethane (1.5 g/kg, intraperitoneal) and set on their backs. Electrocardiogram (lead II) and a heart rate on the animals were recorded on inkwriting oscillograph via a biophysical amplifier and pulse rate tachometer, respectively. […] A fixed amount of 2-methylserotonin was repeatedly administered at 15-minute intervals until stable responses were obtained, and then a test compound was administered intravenously, 3 minutes before administration of 2-methylserotonin.

[5] = Inhibitory effect on exploratory activity; parameters: species or system Male mice (Std-ddy strain); details: mouse, in vivo; mice, oral, 2 hours after administration, counts for 3 minutes; read-out: ED50 inhibition of exploratory activity
Protocol: Inhibitory Effect on Exploratory Activity
Male mice (5 per group, Std-ddy strain, weighing 20-25 g) were used as the test animals, each of which was orally administered with a test compound which was dissolved or suspended in 0.5% tragacanth solution and after 2 hours from the administration put in a test cage (23×35×30 cm) on Animex activity meter (Farad Co.). Exploratory activity of each mouse was counted for the following 3 minutes. The mean counts of exploratory activities (count/3 min.) per group of the tested mice was compared with that of the control group to calculate the inhibition rate, and the effective dose (ED50 value) of each test compound for 50% inhibition was determined by probit analysis.

[6] = target: T1, serotonin S3 (5-HT3) receptor; assay: Serotonin S3 receptor-binding (in vitro receptor binding assay, [3H] quipazine); parameters: Crude synaptosome fractions prepared from rat brain were used as receptor samples; from tissue; host or cells: rat brain, crude synaptosome fraction
Protocol: as §1, §2

[7] = dog, oral, 30 minutes before cisplatin 3 mg/kg i.v., emetic episodes within 5 hours
[8] = dog, oral, 2 hours before apomorphine hydrochloride 0.3 mg/kg s.c., emetic episodes within 1 hour
[9] = ferret, oral, 30 minutes before cisplatin 10 mg/kg i.v., emetic episodes within 3 hours

| IC50 ([6]; crude synaptosome fractions from rat brain, [3H] quipazine (S3), read-out: IC50 S3) [µM] | Compound | ED50 (cisplatin-induced emesis [1]; po) [mg/kg] | ED50 ([2]; po, 2 h) [mg/kg] | ED50 (cisplatin-induced emesis [3]; po) [mg/kg] | ED50 (cisplatin-induced emesis [1]; [7]) [mg/kg] | IC50 (Dopamine D2 receptor) [µM] | ED50 [4] [mg/kg] | ED50 [2, 8] [mg/kg] | ED50 (cisplatin-induced emesis [3]; [9]) [mg/kg] | ED50 at 2 h [5] [mg/kg] | IC50 [6] [µM] |
| --- | --- | --- | --- | --- | --- | --- | --- | --- | --- | --- | --- |
|  | O=c1[nH]c2ccccc2n1CCCN1CCC(n2c(=O)[nH]c3cc(Cl)ccc32)CC1 [domperidone, 5-chloro-1-[1-[3-(2,3-dihydro-2-oxo-1H-benzimidazol-1-yl)propyl]-4-piperidinyl]-1,3-dihydro-2H-benzimidazol-2-one] | > 3 | 0.02 | > 10 |  |  |  |  |  |  |  |
|  | Cc1nccn1CC1CCc2c(c3ccccc3n2C)C1=O.Cl (centres unmarked) [ondansetron hydrochloride, 1,2,3,9-tetrahydro-9-methyl-3-[(2-methyl-1H-imidazol-1-yl)methyl]-4H-carbazol-4-one hydrochloride] |  |  |  | 0.16 | > 100 | 0.0011 | > 10 | 0.1 |  |  |
|  | CN1C2CCCC1CC(NC(=O)c1nn(C)c3ccccc13)C2 (stereo not drawn) [granisetron hydrochloride, endo-1-methyl-N-(9-methyl-9-azobicyclo-[3.3.1]non-3-yl)-1H-indazole-3-carboxamide hydrochloride] |  |  |  |  | > 100 | 0.00026 |  |  |  |  |
| 0.001 | CCN1CCN(C)C[C@@H](NC(=O)c2cc(Br)c(NC)nc2OC)C1.O=C(O)/C=C/C(=O)O.O=C(O)/C=C/C(=O)O [Example 1, (R)-5-bromo-N-(1-ethyl-4-methylhexahydro-1H-1,4-diazepin-6-yl)-2-methoxy-6-methylamino-3-pyridinecarboxamide Difumarate] |  |  |  | 0.29 | 0.0117 | 0.0019 | 0.19 | 0.03 | 48.5 |  |
|  | CCN(CC)CCNC(=O)c1cc(Cl)c(N)cc1OC.Cl.Cl.O [metoclopramide hydrochloride, 4-amino-5-chloro-N-[2-(diethylamino)ethyl]-2-methoxybenzamide dihydrochloride monohydrate] |  |  |  | 3.96 |  | 0.181 | 0.45 | 0.98 | 22.4 | 0.88 |
